Reference: US9328122B2, “7-substituted Hanfangichin B derivative, and preparation method and use thereof” (HANGZHOU BENSHENG PHARMACEUTICAL CO., LTD., priority 2012, dated 2016)
≈ marks a conversion by molar mass, not a printed value.

What was measured:
[1] = tested on: H9 (acute lymphoblastic leukemia) cells; assay: MTT cell growth inhibition, leukemia cells; format: cell-based, human; conditions: for IC50 / IC90: Homo sapiens, H9, 72 h, MTT; for IC50: read-out: IC50; for IC90: read-out: IC90
Excerpt: (§1) Leukemia cell lines: leukemia cell lines: K562adr (drug-resistant, chronic myeloid leukemia, CML), NB4 (acute promyelocytic leukemia, AML), Kasumi-1 (acute myeloid leukemia M2 type, AML-M2), Jurkat (acute lymphoblastic leukemia, ALL), all of which were donated by Cancer Research Institute of Zhejiang University, China; and H9 (acute lymphoblastic leukemia, ALL), which was purchased from China Center for Type Culture Collection.
(§2) Reagents: The standard sample of fangchinoline (FAN) was purchased from Ci Yuan Biotechnology Co., Ltd., Shaanxi, China; and the 7-substituted fangchinoline derivatives according to the present invention.
(§3) 6000 well-growing leukemia cells were obtained and inoculated into wells of a 96-well cell culture plate. The culture medium was a RPMI-1640 cell culture medium containing 10% fetal bovine serum. After adding the 7-substituted fangchinoline derivatives of different concentrations the next day and mixing uniformly, the plate was placed in a carbon dioxide cell incubator (5% CO2) at 37° C. and incubating for 72 hours. Then the viable cell concentration was determined by the MTT method.

[2] = tested on: Kasumi-1 (acute myeloid leukemia M2 type) cells; assay: MTT cell growth inhibition, leukemia cells; format: cell-based, human; conditions: Homo sapiens, Kasumi-1, 72 h, MTT; for IC50: read-out: IC50; for IC90: read-out: IC90
Excerpt: as §1, §2, §3

[3] = tested on: Jurkat (acute lymphoblastic leukemia) cells; assay: MTT cell growth inhibition, leukemia cells; format: cell-based, human; conditions: for IC50 / IC90: Homo sapiens, Jurkat, 72 h, MTT; for IC50: read-out: IC50; for IC90: read-out: IC90
Excerpt: as §1, §2, §3

[4] = tested on: Hep G2 transplanted tumor; assay: Transplanted tumor of liver cancer in nude mice
Experimental: Liver cancer cell lines: Hep G2 (human liver cancer cell line);
Animal: BALBc nude mice (immunodeficient mice), 8 weeks, female, purchased from Shanghai Laboratory Animal Center of Chinese Academy of Sciences, China.
Under sterile conditions, the Hep G2 cells in the logarithmic growth phase were respectively collected and injected subcutaneously in an amount of 2.3×10^7/0.2 mL/nude mice (cell viability >90%) into the left subaxillary of the nude mice, thus establishing a transplanted tumor model of liver cancer in nude mice. The mice were administered from the second day after inoculation. The experimental group was intragastrically administered with the experimentally designed amount, the negative control group was intragastrically administered with sterile water, and the positive control group was intragastrically administered with erlotinib hydrochloride. Each mouse was intragastrically administered in 0.4 ml each time and 3 times a day, at 8:00, 14:00 and 20:00, with 6-hour intervals. The administrations were successive for 10 days. The day before administration was deemed as Day 0 and the weight and tumor size of the mice were determined every 5 days to produce a dynamic plot on weight and tumor growth (the experimental results are presented as mean±SD). On Day 28, the mice were sacrificed and the tumors were taken out and weighed. The tumor inhibition rate (%) after the effect of the medicament was calculated based on a tumor inhibition rate of the control group being zero.
The experimental data for each group were analyzed by using the One-way ANOVA method in the SPSS 19.0 statistical software and were compared with the control group for significance of difference.

[5] = tested on: KCL-22M transplanted tumor; assay: Transplanted tumor of leukemia in nude mice; format: in vivo, BALBc nude mice
Experimental: Leukemia cell lines: KCL-22M (human chronic myeloid leukemia mutant strain);
The mice were administered from the second day after the inoculation. […] The administrations were successive for 10 days. […] On Day 25, the mice were sacrificed and the tumors are taken out and weighed.

[6] = relative to fangchinoline, Table 1

In the case of `COc1ccc2cc1Oc1ccc(cc1)C[C@H]1c3cc(c(OC)cc3CCN1C)Oc1c(OCc3cccc(F)c3F)c(OC)cc3c1[C@H](C2)N(C)CC3` [BS-FC-204], the IC50 [1] is reported as 2.2 µg/mL (≈ 2.99 µM), the IC90 [1] is reported as 3.7 µg/mL (≈ 5.04 µM) and the IC50 [2] is reported as 1.29 µg/mL (≈ 1.76 µM). The IC90 [2] was 3.16 µg/mL (≈ 4.3 µM), the IC50 [3] was 2.23 µg/mL (≈ 3.03 µM) and the IC90 [3] was 3.86 µg/mL (≈ 5.25 µM).

In the case of `COc1ccc2cc1Oc1ccc(cc1)C[C@H]1c3cc(c(OC)cc3CCN1C)Oc1c(OCC(O)CN3CCN(C#N)CC3)c(OC)cc3c1[C@H](C2)N(C)CC3` (stereo partly drawn) [BS-FC-421], the IC50 [1] is reported as 1 µg/mL (≈ 1.29 µM), the IC90 [1] is reported as 2.8 µg/mL (≈ 3.61 µM) and the IC50 [2] is reported as 0.95 µg/mL (≈ 1.22 µM). It also gave an IC90 [2] of 2.55 µg/mL (≈ 3.29 µM), an IC50 [3] of 0.97 µg/mL (≈ 1.25 µM) and an IC90 [3] of 3.79 µg/mL (≈ 4.88 µM).

For `COc1ccc2cc1Oc1ccc(cc1)C[C@H]1c3cc(c(OC)cc3CCN1C)Oc1c(OCC3CC3)c(OC)cc3c1[C@H](C2)N(C)CC3` [BS-FC-208], the IC50 [1] was 2.01 µg/mL (≈ 3.03 µM), the IC90 [1] was 4.28 µg/mL (≈ 6.46 µM) and the IC50 [2] was 0.97 µg/mL (≈ 1.46 µM). It also gave an IC90 [2] of 4.01 µg/mL (≈ 6.05 µM), an IC50 [3] of 0.75 µg/mL (≈ 1.13 µM) and an IC90 [3] of 1.88 µg/mL (≈ 2.84 µM).

In the case of `COc1ccc2cc1Oc1ccc(cc1)C[C@H]1c3cc(c(OC)cc3CCN1C)Oc1c(OS(=O)(=O)c3ccc(C)cc3)c(OC)cc3c1[C@H](C2)N(C)CC3` [BS-FC-102], the IC50 [1] is reported as 2.4 µg/mL (≈ 3.15 µM), the IC90 [1] is reported as 6.4 µg/mL (≈ 8.39 µM) and the IC50 [2] is reported as 1.93 µg/mL (≈ 2.53 µM). The IC90 [2] was 4.32 µg/mL (≈ 5.66 µM), the IC50 [3] was 0.72 µg/mL (≈ 0.944 µM) and the IC90 [3] was 1.97 µg/mL (≈ 2.58 µM).

For `COc1ccc2cc1Oc1ccc(cc1)C[C@H]1c3cc(c(OC)cc3CCN1C)Oc1c(OC3CCCC3)c(OC)cc3c1[C@H](C2)N(C)CC3` [BS-FC-220], the IC50 [1] was 3.23 µg/mL (≈ 4.77 µM), the IC90 [1] was 6.64 µg/mL (≈ 9.81 µM) and the IC50 [2] was 1.15 µg/mL (≈ 1.7 µM). It also gave an IC90 [2] of 3.72 µg/mL (≈ 5.5 µM), an IC50 [3] of 0.93 µg/mL (≈ 1.37 µM) and an IC90 [3] of 3.09 µg/mL (≈ 4.57 µM).

With `COc1ccc2cc1Oc1ccc(cc1)C[C@H]1c3cc(c(OC)cc3CCN1C)Oc1c(OC(=O)c3ccc(N(C)C)cc3)c(OC)cc3c1[C@H](C2)N(C)CC3` [BS-FC-308] the Mass of tumor ([4]; Hep G2 transplanted tumor, Day 28, intragastric 3 times a day for 10 days, BS-FC-308 35 mg/kg/time, erlotinib hydrochloride 20 mg/kg/time) was 566 ± 112.26 mg, the “Tumor Inhibition rate” value ([4]; Hep G2 transplanted tumor, Day 28, intragastric 3 times a day for 10 days, BS-FC-308 35 mg/kg/time, erlotinib hydrochloride 20 mg/kg/time, control = 0) was 55.82% and the “Body Weight (g) Initial” value ([4]; Hep G2 tumor nude mice, before administration, intragastric 3 times a day, BS-FC-308 35 mg/kg/time, erlotinib hydrochloride 20 mg/kg/time, mean±SD) was 21.8 ± 0.62 g. The “Body Weight (g) Final” value ([4]; Hep G2 tumor nude mice, final, intragastric 3 times a day for 10 days, BS-FC-308 35 mg/kg/time, erlotinib hydrochloride 20 mg/kg/time, mean±SD) was 19.0 ± 0.49 g, the “weight of the Hep G2 transplanted tumors (FIG. 3)” value ([4]; nude mice) was “significantly reduces” and the IC50 [1] was 0.7 µg/mL (≈ 0.926 µM). For the same compound, the IC90 [1] was 1.8 µg/mL (≈ 2.38 µM), the “anti-H9 activity increase over fangchinoline” value [1, 6] was > 3 fold and the IC50 [2] was 0.81 µg/mL (≈ 1.07 µM). It also gave an IC90 [2] of 1.9 µg/mL (≈ 2.51 µM), an IC50 [3] of 0.36 µg/mL (≈ 0.476 µM) and an IC90 [3] of 1.62 µg/mL (≈ 2.14 µM). For the same compound, the “anti-Jurkat activity increase over fangchinoline” value [3, 6] was “more than 4 fold”, the “animal's weight during the administration (toxic and side effects)” value ([5]; 30 mg/kg/time, three administrations per day, weight rebounded after administration was stopped) was “weight was reduced” and the Mass of tumor ([5]; KCL-22M transplanted tumor, Day 25, 30 mg/kg/time intragastric 3 times a day for 10 days) was 521 ± 249 mg. For the same compound, the “Tumor Inhibition rate” value ([5]; KCL-22M transplanted tumor, Day 25, 30 mg/kg/time intragastric 3 times a day for 10 days, control = 0) was 74.45%, the “Body Weight (g) Initial” value ([5]; KCL-22M tumor nude mice, before administration, 30 mg/kg/time intragastric 3 times a day, mean±SD) was 19.5 ± 0.2 g and the “Body Weight (g) Final” value ([5]; KCL-22M tumor nude mice, final, 30 mg/kg/time intragastric 3 times a day for 10 days, mean±SD) was 15.4 ± 1.51 g.

In the case of `COc1ccc2cc1Oc1ccc(cc1)C[C@H]1c3cc(c(OC)cc3CCN1C)Oc1c(OCC(O)CN3CCCCC3)c(OC)cc3c1[C@H](C2)N(C)CC3` (stereo partly drawn) [BS-FC-403], the IC50 [1] is reported as 0.88 µg/mL (≈ 1.17 µM), the IC90 [1] is reported as 1.9 µg/mL (≈ 2.53 µM) and the IC50 [2] is reported as 0.88 µg/mL (≈ 1.17 µM). It also gave an IC90 [2] of 2 µg/mL (≈ 2.67 µM), an IC50 [3] of 0.58 µg/mL (≈ 0.773 µM) and an IC90 [3] of 0.96 µg/mL (≈ 1.28 µM).

In the case of `C=C(C)COc1c(OC)cc2c3c1Oc1cc4c(cc1OC)CCN(C)[C@H]4Cc1ccc(cc1)Oc1cc(ccc1OC)C[C@@H]3N(C)CC2` [BS-FC-221], the IC50 [1] is reported as 1.96 µg/mL (≈ 2.96 µM), the IC90 [1] is reported as 4 µg/mL (≈ 6.03 µM) and the IC50 [2] is reported as 1 µg/mL (≈ 1.51 µM). For the same compound, the IC90 [2] was 3.39 µg/mL (≈ 5.11 µM), the IC50 [3] was 0.52 µg/mL (≈ 0.785 µM) and the IC90 [3] was 1.89 µg/mL (≈ 2.85 µM).

Compound `COc1ccc2cc1Oc1ccc(cc1)C[C@H]1c3cc(c(OC)cc3CCN1C)Oc1c(OC(=O)c3c(F)cccc3Cl)c(OC)cc3c1[C@H](C2)N(C)CC3` [BS-FC-315] has an IC50 [1] of 2 µg/mL (≈ 2.61 µM), an IC90 [1] of 3.77 µg/mL (≈ 4.93 µM) and an IC50 [2] of 0.85 µg/mL (≈ 1.11 µM). The IC90 [2] was 3.04 µg/mL (≈ 3.97 µM), the IC50 [3] was 0.59 µg/mL (≈ 0.771 µM) and the IC90 [3] was 1.24 µg/mL (≈ 1.62 µM).
